Source: patent publication US12139520B2 (priority 2020, dated 2024)
Bridge positions count the residues as written; N and C are the ends. Square brackets hold non-standard residues; d marks the D form. Peptide text beside a SMILES is read from it. Hyp = O=C(O)[C@@H]1C[C@@H](O)CN1; Cit = NC(=O)NCCC[C@H](N)C(=O)O

How the values were obtained:
hAMY3 receptor = biological target: T1, hAMY3 receptor (Homo sapiens, UniProt O60896+P30988); assay: cAMP assay for in vitro receptor activation, hAMY3-R; assay type: cell-based; conditions: cAMP assay, hAMY3 receptor; read-out: hAMY3R EC50
T1 sequence (P30988 25-474): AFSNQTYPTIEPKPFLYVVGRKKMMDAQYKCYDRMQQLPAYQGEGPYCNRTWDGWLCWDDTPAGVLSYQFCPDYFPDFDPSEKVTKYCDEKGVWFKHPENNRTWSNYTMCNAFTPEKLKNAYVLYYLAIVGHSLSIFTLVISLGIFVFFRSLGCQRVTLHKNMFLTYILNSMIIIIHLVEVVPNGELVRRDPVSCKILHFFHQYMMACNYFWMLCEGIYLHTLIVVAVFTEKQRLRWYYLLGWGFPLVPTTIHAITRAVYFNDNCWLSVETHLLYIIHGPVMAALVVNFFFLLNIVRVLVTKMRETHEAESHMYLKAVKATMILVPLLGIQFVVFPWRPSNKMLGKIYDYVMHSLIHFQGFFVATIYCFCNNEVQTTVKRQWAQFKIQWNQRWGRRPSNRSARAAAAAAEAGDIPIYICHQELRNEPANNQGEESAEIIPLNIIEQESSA
T1 sequence (O60896 24-148 partner): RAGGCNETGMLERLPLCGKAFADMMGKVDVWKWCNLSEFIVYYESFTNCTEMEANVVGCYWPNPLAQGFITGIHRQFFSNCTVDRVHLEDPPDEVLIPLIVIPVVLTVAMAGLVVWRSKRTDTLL
Summary of the method: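 Read-out is TR-FRET cAMP signal, recorded one hour after reagent addition, following 30 min room-temperature stimulation of stable hAMY3 cells with graded compound doses in casein/IBMX (0.5 mM) buffer.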

hAM1 receptor = hAM1 receptor (Homo sapiens, UniProt O60895+Q16602); assay: cAMP assay for in vitro receptor activation, hAM1-R; assay type: cell-based; conditions: cAMP assay, hAM1 receptor; read-out: hAM1R EC50
Summary of the method: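 Stable hAM1 cells (monoclonal) plated 8000/well; buffer DPBS, 0.05% casein, 0.5 mM IBMX; cAMP read-out.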

[1] = Physical stability of peptide analogues (Thioflavin T fibrillation); assay type: physicochemical; conditions: maximum ThT signal normalized between hAMY maximum and buffer background; 40° C., shaking, four days; pH 7 per table title
Summary of the method: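 ThT fluorescence (450 nm excitation, 480 nm emission; 4 μM dye) was read every 10 min over four days at 40° C under 700 rpm shaking stress, after 1 h in pH 4 acetate or pH 7 phosphate (50 mM). Peak smoothed signal expressed as percent, scaled between buffer background and hAMY maximum.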

Sequence of hAM1 receptor (Q16602 23-461): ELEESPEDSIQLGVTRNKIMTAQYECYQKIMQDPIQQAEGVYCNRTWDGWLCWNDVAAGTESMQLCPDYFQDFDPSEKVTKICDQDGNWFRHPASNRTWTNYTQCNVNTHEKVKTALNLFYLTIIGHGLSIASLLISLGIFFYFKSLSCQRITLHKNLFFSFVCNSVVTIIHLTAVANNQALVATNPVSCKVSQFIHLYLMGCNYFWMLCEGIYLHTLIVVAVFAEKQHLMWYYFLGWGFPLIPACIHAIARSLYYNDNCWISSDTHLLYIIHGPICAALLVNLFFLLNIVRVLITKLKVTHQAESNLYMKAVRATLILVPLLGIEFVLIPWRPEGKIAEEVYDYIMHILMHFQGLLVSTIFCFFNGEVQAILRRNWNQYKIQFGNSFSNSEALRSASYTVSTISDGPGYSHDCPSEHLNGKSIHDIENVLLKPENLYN
Sequence of hAM1 receptor (O60895 43-175 partner): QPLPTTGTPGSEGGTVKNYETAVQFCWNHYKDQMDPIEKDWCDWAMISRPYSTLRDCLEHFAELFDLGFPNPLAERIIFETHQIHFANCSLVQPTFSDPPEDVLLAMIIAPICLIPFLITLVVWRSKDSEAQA

Structure (SMILES)	EC50 (hAMY3 receptor)	EC50 (hAM1 receptor)	Max ThT signal (%) [1]
CC(C)C[C@H](NC(=O)[C@H](Cc1c[nH]c2ccccc12)NC(=O)[C@H](CCC(N)=O)NC(=O)[C@@H](NC(=O)[C@@H](NC(=O)[C@@H]1CSSC[C@H](NC(=O)CN)C(=O)N[C@@H](CCCNC(=N)N)C(=O)N[C@@H](Cc2ccccc2)C(=O)NCC(=O)N[C@@H]([C@@H](C)O)C(=O)N1)[C@@H](C)O)C(C)C)C(=O)N[C@@H](C)C(=O)N[C@@H](Cc1c[nH]cn1)C(=O)N[C@@H](Cc1ccccc1)C(=O)N[C@@H](CC(C)C)C(=O)N[C@@H](Cc1ccc(O)cc1)C(=O)N[C@@H](CCC(N)=O)C(=O)N[C@@H](Cc1ccccc1)C(=O)N[C@H](C(=O)N[C@@H](CC(=O)O)C(=O)N[C@@H](CCCCN)C(=O)N[C@@H](CC(=O)O)C(=O)N[C@@H](CCCCN)C(=O)N[C@@H](CC(=O)O)C(=O)N[C@@H](CC(N)=O)C(=O)N[C@H](C(=O)N[C@@H](C)C(=O)N1CCC[C@H]1C(=O)N[C@@H](CCCNC(=N)N)C(=O)N[C@H](C(=O)N[C@@H](CC(N)=O)C(=O)N[C@H](C(=O)NCC(=O)N1CCC[C@H]1C(=O)N[C@@H](CCC(N)=O)C(=O)NCC(=O)N[C@@H](Cc1ccc(O)cc1)C(N)=O)C(C)C)[C@@H](C)O)C(C)C)[C@@H](C)O [compound 326] (H-GCRFGTCTVQWLAHFLYQFTDKDKDNVAPRTNVGPQGY-NH2; disulfide 2-7; N-terminus assumed)	0.053 nM	> 5000 nM	2.350%
CC[C@H](C)[C@H](NC(=O)[C@H](CCC(N)=O)NC(=O)[C@H](Cc1c[nH]cn1)NC(=O)[C@H](C)NC(=O)[C@H](CC(C)C)NC(=O)[C@H](Cc1c[nH]c2ccccc12)NC(=O)[C@H](CCC(N)=O)NC(=O)[C@@H](NC(=O)[C@@H](NC(=O)[C@@H]1CSSC[C@H](NC(=O)CN)C(=O)N[C@@H](CCCNC(=N)N)C(=O)N[C@@H]([C@@H](C)O)C(=O)NCC(=O)N[C@@H]([C@@H](C)O)C(=O)N1)[C@@H](C)O)C(C)C)C(=O)N[C@@H](Cc1ccc(O)cc1)C(=O)N[C@@H](CCC(N)=O)C(=O)N[C@@H](Cc1ccccc1)C(=O)N[C@H](C(=O)N[C@@H](CC(=O)O)C(=O)N[C@@H](CCCCN)C(=O)N[C@@H](CC(=O)O)C(=O)N[C@@H](CCCCN)C(=O)N[C@@H](CC(=O)O)C(=O)N[C@@H](CC(N)=O)C(=O)N[C@H](C(=O)N[C@@H](C)C(=O)N1CCC[C@H]1C(=O)N[C@@H](CCCNC(=N)N)C(=O)N[C@H](C(=O)N[C@@H](CC(N)=O)C(=O)N[C@H](C(=O)N[C@@H](CO)C(=O)N1CCC[C@H]1C(=O)N[C@@H](CC(N)=O)C(=O)NCC(=O)N1C[C@H](O)C[C@H]1C(N)=O)C(C)C)[C@@H](C)O)C(C)C)[C@@H](C)O [compound 358] (H-GCRTGTCTVQWLAHQIYQFTDKDKDNVAPRTNVSPNG[Hyp]-NH2; disulfide 2-7; N-terminus assumed)	0.071 nM	> 5000 nM	24.350%
CC[C@H](C)[C@H](NC(=O)[C@H](CCC(N)=O)NC(=O)[C@H](Cc1c[nH]cn1)NC(=O)[C@H](C)NC(=O)[C@H](CC(C)C)NC(=O)[C@H](CCCNC(N)=O)NC(=O)[C@H](CCC(N)=O)NC(=O)[C@@H](NC(=O)[C@@H](NC(=O)[C@@H]1CSSC[C@H](NC(=O)[C@@H](N)CCCCN)C(=O)N[C@@H](CC(N)=O)C(=O)N[C@@H]([C@@H](C)O)C(=O)N[C@@H](C)C(=O)N[C@@H]([C@@H](C)O)C(=O)N1)[C@@H](C)O)C(C)C)C(=O)N[C@@H](Cc1ccc(O)cc1)C(=O)N[C@@H](CCC(N)=O)C(=O)N[C@@H](C)C(=O)N[C@H](C(=O)N[C@@H](CC(=O)O)C(=O)N[C@@H](CCCCN)C(=O)N[C@@H](CC(=O)O)C(=O)N[C@@H](CCCCN)C(=O)N[C@@H](CC(=O)O)C(=O)N[C@@H](CC(N)=O)C(=O)N[C@H](C(=O)N[C@@H](C)C(=O)N1CCC[C@H]1C(=O)N1CCC[C@H]1C(=O)N[C@H](C(=O)N[C@@H](CC(N)=O)C(=O)N[C@H](C(=O)NCC(=O)N[C@@H](CO)C(=O)N[C@@H](CC(N)=O)C(=O)NCC(=O)N1C[C@H](O)C[C@H]1C(N)=O)C(C)C)[C@@H](C)O)C(C)C)[C@@H](C)O [compound 276] (H-KCNTATCTVQ[Cit]LAHQIYQATDKDKDNVAPPTNVGSNG[Hyp]-NH2; disulfide 2-7; N-terminus assumed)	0.056 nM	> 5000 nM	8.950%

The remaining lines, values ahead:

EC50 (hAMY3 receptor)	EC50 (hAM1 receptor)	Max ThT signal (%) [1]	Structure (SMILES)
0.076 nM	> 5000 nM	17.850%	CC[C@H](C)[C@H](NC(=O)[C@H](CCC(N)=O)NC(=O)[C@H](Cc1c[nH]cn1)NC(=O)[C@H](C)NC(=O)[C@H](CC(C)C)NC(=O)[C@H](CCCNC(N)=O)NC(=O)[C@H](CCC(N)=O)NC(=O)[C@@H](NC(=O)[C@@H](NC(=O)[C@@H]1CSSC[C@H](NC(=O)CN)C(=O)N[C@@H](CCCNC(=N)N)C(=O)N[C@@H](Cc2ccccc2)C(=O)NCC(=O)N[C@@H]([C@@H](C)O)C(=O)N1)[C@@H](C)O)C(C)C)C(=O)N[C@@H](Cc1ccc(O)cc1)C(=O)N[C@@H](CCC(N)=O)C(=O)N[C@@H](Cc1ccccc1)C(=O)N[C@H](C(=O)N[C@@H](CC(=O)O)C(=O)N[C@@H](CCCCN)C(=O)N[C@@H](CC(=O)O)C(=O)N[C@@H](CCCCN)C(=O)N[C@@H](CC(=O)O)C(=O)N[C@@H](CC(N)=O)C(=O)N[C@H](C(=O)N[C@@H](C)C(=O)N1CCC[C@H]1C(=O)N[C@@H](CCCNC(=N)N)C(=O)N[C@@H](CO)C(=O)N[C@@H](CC(N)=O)C(=O)N[C@H](C(=O)N[C@@H](CO)C(=O)N1CCC[C@H]1C(=O)N[C@@H](CCC(N)=O)C(=O)NCC(=O)N1C[C@H](O)C[C@H]1C(N)=O)[C@@H](C)CC)C(C)C)[C@@H](C)O [compound 300] (H-GCRFGTCTVQ[Cit]LAHQIYQFTDKDKDNVAPRSNISPQG[Hyp]-NH2; disulfide 2-7; N-terminus assumed)
0.021 nM	12 nM	4.800%	CC[C@H](C)[C@H](NC(=O)[C@H](CCC(N)=O)NC(=O)[C@H](Cc1c[nH]cn1)NC(=O)[C@H](C)NC(=O)[C@H](CC(C)C)NC(=O)[C@H](CCCNC(=N)N)NC(=O)[C@H](CCC(N)=O)NC(=O)[C@@H](NC(=O)[C@@H](NC(=O)[C@@H]1CSSC[C@H](NC(=O)CN)C(=O)N[C@@H](CCCNC(=N)N)C(=O)N[C@@H](Cc2ccccc2)C(=O)NCC(=O)N[C@@H]([C@@H](C)O)C(=O)N1)[C@@H](C)O)C(C)C)C(=O)N[C@@H](Cc1ccc(O)cc1)C(=O)N[C@@H](CCC(N)=O)C(=O)N[C@@H](Cc1ccccc1)C(=O)N[C@H](C(=O)N[C@@H](CC(=O)O)C(=O)N[C@@H](CCCCN)C(=O)N[C@@H](CC(=O)O)C(=O)N[C@@H](CCCCN)C(=O)N[C@@H](CC(=O)O)C(=O)N[C@@H](CC(N)=O)C(=O)N[C@H](C(=O)N[C@@H](C)C(=O)N1CCC[C@H]1C(=O)N[C@@H](CCCNC(=N)N)C(=O)N[C@@H](CO)C(=O)N[C@@H](CC(N)=O)C(=O)N[C@H](C(=O)NCC(=O)N1CCC[C@H]1C(=O)N[C@@H](CCC(N)=O)C(=O)NCC(=O)N[C@@H](Cc1ccc(O)cc1)C(N)=O)C(C)C)C(C)C)[C@@H](C)O [compound 374] (H-GCRFGTCTVQRLAHQIYQFTDKDKDNVAPRSNVGPQGY-NH2; disulfide 2-7; N-terminus assumed)
0.004 nM	> 5000 nM	15.050%	CC[C@H](C)[C@H](NC(=O)[C@H](CCC(N)=O)NC(=O)[C@H](Cc1c[nH]cn1)NC(=O)[C@H](C)NC(=O)[C@H](CC(C)C)NC(=O)[C@H](Cc1c[nH]c2ccccc12)NC(=O)[C@H](CCC(N)=O)NC(=O)[C@@H](NC(=O)[C@@H](NC(=O)[C@@H]1CSSC[C@H](NC(=O)[C@@H](N)CCCCN)C(=O)N[C@@H](CC(N)=O)C(=O)N[C@@H]([C@@H](C)O)C(=O)N[C@@H](C)C(=O)N[C@@H]([C@@H](C)O)C(=O)N1)[C@@H](C)O)C(C)C)C(=O)N[C@@H](Cc1ccc(O)cc1)C(=O)N[C@@H](CCC(N)=O)C(=O)N[C@@H](Cc1ccccc1)C(=O)N[C@@H](C)C(=O)N[C@@H](CC(=O)O)C(=O)N[C@@H](CCCCN)C(=O)N[C@@H](CC(=O)O)C(=O)N[C@@H](CCCCN)C(=O)N[C@@H](CC(=O)O)C(=O)N[C@@H](CC(N)=O)C(=O)N[C@H](C(=O)N[C@@H](C)C(=O)N1CCC[C@H]1C(=O)N1CCC[C@H]1C(=O)N[C@H](C(=O)N[C@@H](CC(N)=O)C(=O)N[C@H](C(=O)NCC(=O)N[C@@H](CO)C(=O)N[C@@H](CC(N)=O)C(=O)NCC(=O)N1C[C@H](O)C[C@H]1C(N)=O)C(C)C)[C@@H](C)O)C(C)C [compound 313] (H-KCNTATCTVQWLAHQIYQFADKDKDNVAPPTNVGSNG[Hyp]-NH2; disulfide 2-7; N-terminus assumed)
